# Test results taken from paper PMC12528448, “Resistance to CDK7 inhibitors directed by acquired mutation of a conserved residue in cancer cells” (The EMBO Journal, 2025).
# Several values for one entry are separate records, joined by “and”; a condition that tells them apart may be missing. Equal values may be shown once.
# Columns and labels:
# [1] = tested on: 22Rv1-SamR cells; assay: Growth assay (SRB), Samuraciclib-resistant 22Rv1; type: cell-based, human; settings: for % Growth: 22Rv1 SamR, 4 days, biological reps
# Description: (§1) To determine the IC50 of drug treatments on growth, cells were seeded in 96-well culture plates. Two days after seeding, the cells were treated with increasing concentrations of drugs and incubated for 4 days. Cell number was determined using the SRB assay (Skehan et al, [1990]), and IC50 values were calculated using non-linear regression curve fitting in GraphPad Prism v10. For all other growth experiments, cells were seeded into 96-well plates, and appropriate drugs were added 2 days after seeding. Cells were then incubated in an IncuCyte Zoom live-cell imager, with cell confluency measured every 6 h. Cell doubling times were determined by non-linear curve fitting (exponential growth equation) in GraphPad Prism v10.
# [2] = tested on: MCF7 cells; assay: Growth assay (SRB), MCF7; type: cell-based, human; settings: for IC50: 4 days, SRB; for % Growth: biological reps
# Description: as §1
SMILES,% Growth ([1]; Log10 Conc. (nM) 0.09),% Growth ([1]; Log10 Conc. (nM) 0.69),% Growth ([1]; Log10 Conc. (nM) 1.29),% Growth ([1]; Log10 Conc. (nM) 1.89),% Growth ([1]; Log10 Conc. (nM) 2.49),% Growth ([1]; Log10 Conc. (nM) 3.10),% Growth ([1]; Log10 Conc. (nM) 3.70),% Growth ([1]; Log10 Conc. (nM) 4.30),% Growth ([1]; Log10 Conc. (nM) -0.52),IC50 [2],"% Growth ([2]; Log10 Conc. (nM) 0.09, 4 days)","% Growth ([2]; Log10 Conc. (nM) 0.69, 4 days)","% Growth ([2]; Log10 Conc. (nM) 1.29, 4 days)","% Growth ([2]; Log10 Conc. (nM) 3.70, 4 days)","% Growth ([2]; Log10 Conc. (nM) -0.52, 4 days)","% Growth ([2]; Log10 Conc. (nM) -1.12, 4 days)",other results
CC(C)c1cnn2c(NCc3ccccc3-n3cccn3)nc(OC3CCCNC3)nc12 (stereo not drawn) [LDC4297],97.61% and 104.31%,95.33% and 95.56%,91.02% and 93.49%,85.93% and 89.36%,74.46% and 80.17%,45.54% and 51.37%,16.52% and 21.74%,-6.89% and -7.33%,95.69% and 97.10%,7.3 nM,91.12% and 94.99% and 92.39%,52.29% and 66.02% and 70.05%,18.87% and 28.85% and 28.07%,-7.82% and -0.67% and -1.06%,95.85% and 97.88% and 93.10%,–,"Resistance (Fold), fold increase in IC50 of 22Rv1-SamR relative to 22Rv1 ([1]; 22Rv1-SamR vs 22Rv1): 45 fold; % Growth ([2]; Log10 Conc. (nM) 2.49, 4 days): 9.82% and 18.59% and 16.86%; % Growth ([2]; Log10 Conc. (nM) 4.30, 4 days): -10.31% and -1.91% and -1.69%"
CC1(C)CC[C@H](Nc2ncc(C(F)(F)F)c(-c3c[nH]c4c(P(C)(C)=O)c(C#N)ccc34)n2)CN1 [SY-5609],94.28% and 98.03%,91.01% and 94.67%,84.55% and 89.75%,83.73% and 90.98%,88.47% and 92.95%,68.45% and 76.13%,36.40% and 39.48%,6.16% and 8.88%,92.07% and 94.10%,–,43.96% and 47.02% and 63.49% and 64.31%,–,–,-10.60% and -11.04% and -2.07% and -2.25%,82.42% and 80.79% and 92.64% and 94.88%,91.04% and 90.64% and 92.12% and 97.41%,"IC50 ([2]; Homo sapiens, 96 h): 1.4 nM"
CN(C)C/C=C/C(=O)Nc1ccc(C(=O)Nc2cccc(Nc3ncc(Cl)c(-c4c[nH]c5ccccc45)n3)c2)cc1 [THZ1],83.75% and 87.25%,68.41% and 67.61%,30.25% and 41.41%,-7.69% and -2.73%,-11.43% and -7.53%,-11.82% and -8.43%,-15.22% and -10.53%,–,93.15% and 99.90%,153 nM,91.30% and 94.59% and 94.55%,87.28% and 92.52% and 92.40%,80.95% and 90.37% and 89.19%,-9.74% and -3.96% and -4.65%,92.77% and 97.61% and 102.10%,92.06% and 94.91% and 96.97%,"Sensitivity in growth assays ([1]; 22Rv1-SamR): remained sensitive; % Growth ([1]; Log10 Conc. (nM) -1.12): 93.43% and 95.60%; % Growth ([2]; Log10 Conc. (nM) 1.89, 4 days): 64.20% and 77.72% and 79.90%; % Growth ([2]; Log10 Conc. (nM) 3.10, 4 days): -9.63% and -1.23% and -2.34%"
